Assay: In vitro cutaneous penetration on human skin (Franz cell)
Type: in vitro ADME
Conditions: 16 hours after application; the 3 formulae evaluated (Examples 2 and 9, reference gel)
Description: The cutaneous penetration studies performed on the formulations of the invention containing an active principle of the retinoid class were performed in vitro on whole human abdominal skin after excision, this skin being mounted on a Franz cell.
After topical application of a given amount of the formulation to the surface of the skin, the penetration of the active principle is measured 16 hours after application.
The amount of active principle of the retinoid class is measured in the various skin compartments: stratum corneum, epidermis, dermis and also in the receiving liquid.
The bioanalysis was carried out by positive electrospray ionization tandem mass spectrometry, and using a Xevo machine (Waters).
The quantification limit for compound A is 0.5 ng/mL. The LC/MS/MS conditions developed made it possible to detect up to 0.1% of the dose applied in each of the compartments (dose not absorbed, stratum, epidermis, dermis and receiving liquid). The appropriateness, accuracy and repeatability of the method were checked in each of the matrices, and made it possible to validate the bioanalysis method.
In this type of “single point” study, the parameters retained are: • a. the distribution profile in the various compartments (qualitative data) • b. the penetration into the epidermis+dermis compartment (numerical data)

In the case of `CC(C)(C)c1cc(-c2cc(-c3ccc(C(=O)O)cc3)ccc2OCCO)ccc1N1CCCC1` [Compound A, 3″-tert-butyl-4′-(2-hydroxyethoxy)-4″-pyrrolidin-1-yl-[1,1′; 3′,1″]-terphenyl-4-carboxylic acid], the “Compound A in the receiving liquid” value is reported as “not detected”.

Source: patent US9375477B2 (GALDERMA RESEARCH & DEVELOPMENT, priority 2012, dated 2016)
